# Results as given in article PMC9653966, “Simultaneous Degradation Study of Isomers in Human Plasma by HPLC-MS/MS and Application of LEDA Algorithm for Their Characterization” (International Journal of Molecular Sciences, 2022).
# Like-named read-outs stand apart in the source and are kept apart here.
# How the values were obtained:
# [1] = Chemical stability test in human plasma (enzymatic hydrolysis, HPLC-MS/MS); assay type: in vitro ADME; conditions: for LEDA195–221 k ± 2SD (degradation rate): LEDA195–221 matrix (Table S4); for behaviour towards plasma enzymes (hydrolysis or stable) / half-life at 1 µM: human plasma; for behaviour towards plasma enzymes (hydrolysis or stable): all sample sets (pure isomer and mixture), up to 120 min at 37 °C; for half-life at 1 µM: human
# Method: The present investigation was carried out to evaluate the variation of hydrolytic activity of the human plasma enzymatic system when two potential substrates were simultaneously present. […] Therefore, the human plasma sample solutions, prepared with a mixture of isomers, presented both a substrate and a potential interference, which could influence the enzyme functionality. To correctly monitor this process, it must be possible to distinguish each isomer present in the sample, quantify it with the proper calibration curve and plot its degradation profile. The LEDA algorithm was used to support this investigation and to test its quali-quantitative ability in a complex matrix of human plasma samples. The experimental plan involved the analysis of three series of human plasma samples for each couple of isomers: two series of samples were added to a pure isomer, to check the activity of the plasma enzyme system without interferences, and the last series of samples were spiked with the equimolar mixture of isomers. The series of samples were prepared, as described in Section 4.6 and analyzed with the proper HPLC-MS/MS method. The acquired data were processed with the conventional quantitative method for the series containing the single isomers, and with the LEDA approach for the samples spiked with the mixture of isomers. The samples containing a single isomer were worked out by the integration of quantitative Pi signal and the estimation of PAR value by dividing with IS abundance, and quantitative determination of the analyte in the sample was obtained by using the proper calibration curve. In contrast, in the samples spiking with the mixture of isomers, each proposed LEDA matrix recognized the relative concentration of the isomers present in the sample. Therefore, their abundance in the precursor ion signal (or Ri signal) were assigned, each PAR value calculated by dividing with the IS abundance, and quantitative determination of the analytes in the sample were performed by using the respective precursor ion calibration curve. In Figure 6, an example of the degradation plots of the mixtures of the ELF94 and ELF96 isomers is shown, while all the degradation profiles are reported in the Supplementary Material (Figures S20–S25).
# Each sample was prepared by adding 10 µL of proper spiked solution to 100 µL of human plasma matrix in a 1.5 mL microcentrifuge tube. The obtained solution corresponds to 1 μM of analyte that undergo degradation study. Each set of samples was prepared in triplicate and incubated for four different times: 0, 30, 60, and 120 min at 37 °C. Therefore, each stability panel of studied analyte was represented by a batch of 12 samples (4 incubation times, 3 replicates). After the incubation, 300 µL of IS solution was added to the sample and then centrifuged (room temperature for 5 min at 800× g). Then, the supernatant was transferred to autosampler vials, dried under a gentle stream of nitrogen and dissolved in 1.0 mL of 10 mM of formic acid in mQ water:acetonitrile 80:20 solution [23, 24, 25, 27, 28, 29, 30]. Each sample batch included the blank samples of human plasma matrix, prepared as described above, with the addition only of the IS solution. Thus, the analysis of the blank samples can check any interference in the analyte MRM signals due to the matrix components. Three sets of six replicates for each analyte were prepared to evaluate the matrix effect (ME) and the analyte recovery (RE) of the proposed method. The same evaluation was extended to the IS to verify its reliability as a quantitative reference. Set A was prepared by mixing 10 µL of spiked solution with 300 µL of IS solution. Set B was obtained by mixing 100 µL of plasma with 300 µL of acetonitrile and, after centrifugation and separation of the supernatant, by adding 10 µL of spiked solution to each analyte or 300 µL of IS solution. […]
# [2] = set-up: method as in PMID 27882889, PMID 29536775, PMID 35753165, PMID 30947123; conditions: check of hydrolytic activity of the plasma pool; own degradation plot comparable to literature value; cited from earlier work
# [3] = human plasma spiked with equimolar mixture of the isomer pair, 1 μM each, 37 °C, LEDA195–221 matrix
# [4] = human plasma spiked with isomers mixture
# [5] = human plasma spiked with isomers mixture, LEDAall matrix (Table S4)
# [6] = human plasma spiked with the pure isomer, 1 μM, 37 °C, 0-120 min, conventional quantitative processing
# [7] = human plasma spiked with equimolar mixture of the isomer pair, 1 μM each, 37 °C, LEDA195–221 matrix, read-out: Mix t1/2 ± 2SD
# [8] = human plasma spiked with isomers mixture, LEDAall matrix (Table S4), read-out: LEDAall t1/2 ± 2SD
# [9] = human plasma spiked with the pure isomer, 1 μM, 37 °C, 0-120 min, conventional quantitative processing, read-out: Pure Isomer t1/2 ± 2SD
SMILES,"Mix k ± 2SD (degradation rate) [1, 3]","LEDA195–221 k ± 2SD (degradation rate) [1, 4]","LEDAall k ± 2SD (degradation rate) [1, 5]","Pure Isomer k ± 2SD (degradation rate) [1, 6]",behaviour towards plasma enzymes (hydrolysis or stable) [1],"half-life at 1 µM [1, 7]","half-life at 1 µM [1, 8]","half-life at 1 µM [1, 9]",t1/2 of the reference compound in human plasma [2]
COc1cc(/C=C/C(=O)OCCCN(C)CCCCCOC(=O)c2cc(OC)c(OC)c(OC)c2)cc(OC)c1OC [FRA76],−0.019 ± 0.003 ln(μM)/min,−0.019 ± 0.003 ln(M)/min,−0.019 ± 0.005 ln(M)/min,−0.017 ± 0.001 ln(μM)/min,hydrolysis,32 ± 18 min,32 ± 19 min,43 ± 16 min,
COc1cc(/C=C/C(=O)OCCCN(C)CCCCCCOC(=O)c2cc(OC)c(OC)c(OC)c2)cc(OC)c1OC [ELF94],−0.023 ± 0.005 ln(μM)/min,−0.023 ± 0.005 ln(M)/min,−0.023 ± 0.003 ln(M)/min,−0.014 ± 0.001 ln(μM)/min,hydrolysis,34 ± 14 min,34 ± 15 min,49 ± 18 min,
COc1cc(/C=C/C(=O)OCCCCCCN(C)CCCOC(=O)c2cc(OC)c(OC)c(OC)c2)cc(OC)c1OC [ELF96],<0.006 ln(μM)/min,< 0.006 ln(M)/min,< 0.006 ln(M)/min,<0.006 ln(μM)/min,remained constant,> 120 min,> 120 min,> 120 min,
"CCOC(=O)C(C)c1cccc(C(=O)c2ccccc2)c1 (stereo not drawn) [KEE, Ketoprofen ethyl ester]",,,,,,,,,≤ 120 min
COc1cc(/C=C/C(=O)OCCCCCN(C)CCCOC(=O)c2cc(OC)c(OC)c(OC)c2)cc(OC)c1OC [GDE5],<0.006 ln(μM)/min,< 0.006 ln(M)/min,< 0.006 ln(M)/min,<0.006 ln(μM)/min,remained constant,> 120 min,> 120 min,> 120 min,
